Measurements: PMC6801510, “A2A Receptor Homodimer-Disrupting Sequence Efficiently Delivered by a Protease-Resistant, Cyclic CPP Vector” (International Journal of Molecular Sciences, 2019)
Ends that are not written are not given here.

Experiments:
[1] = biological target: T1, A2AR homodimer (A2A-cYFP / A2A-nYFP) in HEK-293T cells (Homo sapiens, UniProt P29274); test: Bimolecular fluorescence complementation (BiFC) assay of A2A receptor homodimer disruption; assay type: cell-based; settings: 4 h incubation with peptide; for Effect on the control BiFC fluorescence (A2AR dimerization): HEK-293T cells, A2A-cYFP / A2A-nYFP, versus fluorescence of the dimer in the absence of peptides
T1 construct: expressed in transfected cells; host or cells: HEK-293T
Description: For bimolecular fluorescence complementation (BiFC) assays: cells were transfected using cDNAs coding for two versions of the receptor. As described elsewhere [18, 27], two cDNAs were prepared: each encoding the receptor fused to one of the two halves of the super yellow fluorescent protein (sYFP). […] Each half of the fluorescent protein is unable, by itself, to emit fluorescence, which is only feasible after complementation of the two halves of the sYFP.
To address homodimer disruption, bimolecular fluorescence complementation assays were performed using HEK-293T cells transfected with equal amounts of cDNAs (0.75 µg cDNA each) for A2A-cYFP and A2A-nYFP fusion proteins (intramural production, see [17, 18, 26, 28]). […] Fluorescence was recorded in a Fluostar Optima fluorimeter (BMG Labtechnologies, Offenburg, Germany). […] Values of fluorescence obtained in the absence or presence of peptides are given as mean ± standard error of the mean (SEM) of 16 independent experiments in duplicates.

trypsin = test: Trypsin digestion followed by HPLC; assay type: in vitro ADME; settings: trypsin (isolated protease), after 30 min, peptide:trypsin 100:1, peptide 1 µg/µL, 50 mM ammonium bicarbonate buffer pH 8.2, 37 °C, reverse-phase HPLC-MS read-out, assays in duplicate, read-out: Decrease in the area of the starting HPLC peak on trypsin treatment
Text: It was of particular interest to ascertain how the internal cyclization and D-amino acid modifications influenced the lifespan of the partially cyclic structures. To this end, peptides 1 and 2, both with a TM5 disruptor sequence fused to a linear or a cyclic CPP motif, respectively, were inspected by high-performance liquid chromatography (HPLC) upon trypsin treatment. Analysis confirmed the vulnerability of fully linear 1 (Figure 3), with a 90% decrease in the area of the starting peak after only 30 min (Figure 4), and the appearance of new peaks identified by mass spectrometry (MS) (Table 2).
A 1000 µg/1000 µL trypsin solution (Thermo Fisher Scientific, Cornellà de Llobregat, Spain) […]) was prepared by suspending the lyophilized enzyme in 50 mM ammonium bicarbonate buffer, pH 8.2. Peptides dissolved in the same buffer (1 µg/µL) were incubated with trypsin (peptide:trypsin ratio = 100:1) for 24 h at 37 °C. Samples were collected at various time points and digestion was stopped by addition of 20% (v/v) of 0.5% formic acid in H2O. Samples were stored at −20 °C until analyzed by reverse-phase HPLC-MS.

[2] = biological target: T2, adenosine A2A receptor, fused to one half of super yellow fluorescent protein (A2A-cYFP or A2A-nYFP), BiFC … (UniProt P29274 1-412); test: split reporter (BiFC, NanoBiT); competition: HEK-293T cells expressing A2A-cYFP and A2A-nYFP treated with TM5 peptides 1 or 2 for 4 h before the complementation assay, in supplemented DMEM; dose-dependent loss of YFP fluorescence; settings: one partner purified
T2 construct: source: HEK-293T, transfected, in living cells
T2 sequence (P29274 whole entry, the tested form may be a part): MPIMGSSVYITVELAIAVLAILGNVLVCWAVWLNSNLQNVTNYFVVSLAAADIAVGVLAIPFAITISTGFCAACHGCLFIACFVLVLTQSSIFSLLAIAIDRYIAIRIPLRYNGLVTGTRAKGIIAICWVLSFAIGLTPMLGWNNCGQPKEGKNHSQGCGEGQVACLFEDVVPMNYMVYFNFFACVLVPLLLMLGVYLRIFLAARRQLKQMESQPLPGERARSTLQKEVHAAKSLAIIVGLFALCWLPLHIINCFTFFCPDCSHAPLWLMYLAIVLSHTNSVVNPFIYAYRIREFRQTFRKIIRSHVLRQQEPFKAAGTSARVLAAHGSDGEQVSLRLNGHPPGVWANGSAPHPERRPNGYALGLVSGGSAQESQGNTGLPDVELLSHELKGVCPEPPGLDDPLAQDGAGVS

T1 sequence (P29274 whole entry): as the sequence (P29274 whole entry, the tested form may be a part) above

Q: Which “Effect on the control BiFC fluorescence (A2AR dimerization)” value [1] does the source give for “MNYMVYFNFFACVLVPLLLMLGVYLYGRKKRRQRRR-NH2 [Peptide 1]” here?
A: affected the fluorescence of the control in a dose-dependent manner

Q: And the metabolised at 0.5 h, 1 µg/µL (trypsin)?
A: 90%

Q: With “MNYMVYFNFFACVLVPLLLMLGVYL[KrRrGrKkRrE]-amide (sidechain bridge or staple) [Peptide 2, Cyclic Tat-like TM5: A2AR TM5 fused to cyclic KrRrGrKkRrE motif, N-terminus acetylated]” as the molecule, how does the IC50 ([1]; HEK-293T cells transfected with A2A-cYFP and A2A-nYFP, 48 h post-transfection, supplemented DMEM, Figure 2B, mean +/- SD, n = 12 in duplicates, read-out: IC50 for reduction of BiFC (sYFP complementation) fluorescence of the A2AR homodimer) read?
A: 350 nM

Q: What about the “Effect on the control BiFC fluorescence (A2AR dimerization)” value [1] of the same molecule?
A: affected the fluorescence of the control in a dose-dependent manner

B1: Peptide 2, cyclic Tat-like TM5 (peptide)
peptide: MNYMVYFNFFACVLVPLLLMLGVYLKRRRGRKKRRE
modifications: also: cyclic (mode of cyclisation not given here)
notes: also called TM5-cyclic Tat-like; cyclic version 2; source: synthetic peptide (Fmoc solid-phase synthesis, on-resin cyclization, purified by preparative HPLC)
Q: B1 was tested. Which IC50 [2] did it give?
A: 350 nM

B2: Peptide 1, linear Tat-based TM5 (peptide)
peptide: MNYMVYFNFFACVLVPLLLMLGVYLYGRKKRRQRRR-NH2
notes: TM5 helical domain of the adenosine A2A receptor (A2AR); also called linear TM5-Tat; linear peptide 1; source: synthetic peptide (Fmoc solid-phase synthesis, purified by preparative HPLC)
Q: Which IC50 [2] does the source give for B2 here?
A: 520 nM
